Read-outs that look alike come from different tables or passages of the source.
Columns and labels:
[1] = tested on: APPswe/PS1∆E9 transgenic mice; experiment: Two-day water maze; assay type: in vivo; settings: AD mice fed 200 ppm in chow for 3 months from 10 months of age; day 2
Protocol: The APPswe/PS1∆E9-transgenic mice were characterized previously. Line 85 mice carry two transgenes, the mouse/human chimeric APPswe, linked to Swedish familial AD and human PS1∆E9. At 10 months of age, female transgenic mice were fed a defined diet (Harlan Teklad; Envigo, Indianapolis, IN, USA) with and without CAD-31 (200 ppm, approximately 10 mg/kg/day). Treatment continued for 3 months, followed by behavior testing and tissue harvesting.
Spatial memory was determined using the 2-day water maze with 13-month-old APPswe/PS1∆E9 transgenic mice fed CAD-31 for the previous 3 months. The protocol was adapted from a publication by Gulinello and colleagues. The goal platform was positioned 45 cm from the outside wall in the northwest quadrant of the maze. Day 1 involved training the mice (n = 10 per group) to find the platform using cues located around the pool within a 180-second time frame. This training involved a series of visible platform trials where mice were tracked using EthoVision software (Noldus Information Technology, Leesburg, VA, USA). […] The time it took each mouse to find the hidden platform was measured as escape latency. All trials were recorded using the EthoVision software, and statistics were computed using InStat software (GraphPad Software, La Jolla, CA, USA) by an individual blinded to the experiment.

[2] = tested on: hippocampal gene expression; experiment: Whole-transcriptome RNA-sequencing of hippocampus; assay type: in vivo, mice
Protocol: RNA was isolated from the hippocampus using the RNeasy Plus Universal Mini Kit (QIAGEN, Valencia, CA, USA). RNA sequencing (RNA-seq) libraries were prepared using the TruSeq Stranded mRNA Sample Prep Kit (Illumina, San Diego, CA, USA) according to the manufacturer’s instructions. Briefly, polyadenylation RNA was selected using oligo(dT) beads. Messenger RNA was then fragmented and reverse-transcribed. Complementary DNA (cDNA) was end-repaired, adenylated, and ligated with Illumina adapters with indexes. Adapter-ligated cDNA was then amplified. Libraries were pooled and sequenced single-end 50 bp on the HiSeq 2500 platform (Illumina). Sequencing reads were quality-tested using FastQC and aligned to the mm10 mouse genome using STAR Aligner version 2.4k. Mapping was carried out using default parameters (up to ten mismatches per read and up to nine multimapping locations per read). Raw gene expression was quantified across all gene exons by RNA-seq using the top-expressed isoform as a proxy for gene expression, and differential gene expression was carried out using the edge R package version 3.6.8, using replicates to compute within-group dispersion. p Values are adjusted to control the false discovery rate (FDR) by the method of Benjamini and Hochberg. Differentially expressed genes were defined as having an FDR <0.05 and a log2 fold change >1. […]

Pharmacokinetics in rats = assay type: in vivo, Sprague-Dawley rats
Protocol: Sprague-Dawley rats had free access to food and water. CAD-31 was given by gavage to rats at 20 mg/kg in corn oil and intravenously in 15% HS 15/PBS. Whole-blood samples were collected from the jugular vein at every time point and brain collected after 20-ml saline perfusion. CAD-31 was extracted with acetonitrile and compared with standards on a TSQ Quantiva™ Triple Quadrupole Mass Spectrometer (Thermo Scientific, Waltham, MA, USA). For the mouse feeding studies, mice had free access to food containing 200 ppm CAD-31. Blood was collected by heart puncture, and the brain concentration was determined as with rats.

Caco 2 = Caco 2 Transport; assay type: in vitro ADME
[3] = tested on: human neural precursor cells (NPCs); parameters: method as in PMID 27149904; settings: compared with J147; cited from earlier work
HT22 = experiment: In vitro ischemia; assay type: cell-based; settings: Mus musculus, HT-22, read-out: Half-maximal effective concentration, In vitro ischemia
Protocol: (§1) The various phenotypic screening assays were conducted as previously described. Briefly, HT-22, primary cortical neurons, or MC65 was plated and exposed to the different environmental stresses. Cells were treated with varying concentrations of CAD-31, and half-maximal effective concentration (EC50) was determined on the basis of cell viability.
• An assay that mimics the dramatic loss of neurotrophic support in the old brain is the trophic factor withdrawal assay. Primary embryonic day 18 cortical cells are plated at low density in serum-free medium. At low density, the cells die within 2 days; they can be rescued by combinations of neurotrophic growth factors, but not by one alone ([19] and unpublished data). […] BDNF is a molecule that is also involved in promoting memory and neurogenesis and is reduced in the brain with age and in AD, as well as in other neurological disorders. BDNF has long been considered a drug target for AD [23]. […] A reduction in GSH is a common denominator of old age and essentially all chronic central nervous system (CNS) diseases. J147 and CAD-31 both effectively reduce oxidative stress, with EC50 of 6 nM and 20 nM, respectively. • CAD-31 also prevents loss of energy metabolism that leads to neuron cell death in an in vitro ischemia model. […]

MC65 = experiment: Aβ toxicity (intracellular); assay type: cell-based, human; settings: read-out: Half-maximal effective concentration, Aβ toxicity (intracellular)
Protocol: as §1
• An assay that mimics the dramatic loss of neurotrophic support in the old brain is the trophic factor withdrawal assay. Primary embryonic day 18 cortical cells are plated at low density in serum-free medium. At low density, the cells die within 2 days; they can be rescued by combinations of neurotrophic growth factors, but not by one alone ([19] and unpublished data). […] BDNF is a molecule that is also involved in promoting memory and neurogenesis and is reduced in the brain with age and in AD, as well as in other neurological disorders. BDNF has long been considered a drug target for AD [23]. […] A reduction in GSH is a common denominator of old age and essentially all chronic central nervous system (CNS) diseases. J147 and CAD-31 both effectively reduce oxidative stress, with EC50 of 6 nM and 20 nM, respectively. • CAD-31 also prevents loss of energy metabolism that leads to neuron cell death in an in vitro ischemia model. […] Intracellular Aβ toxicity was assayed in the human neuron cell line MC65 that conditionally expresses the C99 fragment of the amyloid precursor protein. When the cells are induced to make Aβ, the cells die within 4 days. Both J147 and CAD-31 block this toxicity at around 10 nM. Therefore, CAD-31 has a repertoire of neuroprotective activities similar but not identical to that of its parent compound, J147.

Cc1ccc(N(/N=C/c2cccc(OC(F)(F)F)c2)C(=O)C(F)(F)F)c(C)c1 [CAD-31]
escape latency, hidden platform trial T1 [1]: significantly reduces the escape latency relative to AD mice to control levels | number of significant genes changed ([2]; AD model, CAD-31-treated vs AD): 730 | number of significant genes changed ([2]; WT model, CAD-31-treated vs control): 29 | PO Max Brain, concentration (Pharmacokinetics in rats; 20 mg/kg by gavage in corn oil): 3.0 µM | PO Max Brain, time (Pharmacokinetics in rats; 20 mg/kg by gavage in corn oil): 8 h | PO Max Plasma, concentration (Pharmacokinetics in rats; 20 mg/kg by gavage in corn oil): 1.7 µM | PO Max Plasma, time (Pharmacokinetics in rats; 20 mg/kg by gavage in corn oil): 8 h | Kp at 8 h (Pharmacokinetics in rats; Sprague-Dawley, rat, brain and plasma, po, 20 mg/kg by gavage, at 8 h, read-out: brain-to-plasma ratio): 2.8 | half-life (Pharmacokinetics in rats; Sprague-Dawley, rat, in vivo, 20 mg/kg): 4.3 h | bioavailability (Pharmacokinetics in rats; Sprague-Dawley, rat, plasma, oral, 20 mg/kg): 31% | Caco 2 Transport (Caco 2): High | neurogenic activity [3]: enhanced neurogenic activity over J147 | EC50 (HT22): 47 nM | EC50 (MC65; Homo sapiens, MC65, MC65): ~10 nM | EC50 (MC65; MC65): 12 nM
